The source of these data is PubChem BioAssay AID1794829.

Results filed as inconclusive are left out.

In this assay the target is Solute carrier family 2, facilitated glucose transporter member 2 (Homo sapiens) (UniProt P11168). Description: SLC2A2-mediated glucose transport in cells – cell-based, flow cytometry, glucose FRET sensor, HEK293 JumpIN TRex, wild type, dose response (AID 1794829). To be noted: HEK293 JumpIN SLC2A2-OE. (Flow cytometry measures light scatter and fluorescence of single cells or particles in a stream.)
Sequence of Solute carrier family 2, facilitated glucose transporter member 2 (Homo sapiens) (P11168 whole entry, looked up): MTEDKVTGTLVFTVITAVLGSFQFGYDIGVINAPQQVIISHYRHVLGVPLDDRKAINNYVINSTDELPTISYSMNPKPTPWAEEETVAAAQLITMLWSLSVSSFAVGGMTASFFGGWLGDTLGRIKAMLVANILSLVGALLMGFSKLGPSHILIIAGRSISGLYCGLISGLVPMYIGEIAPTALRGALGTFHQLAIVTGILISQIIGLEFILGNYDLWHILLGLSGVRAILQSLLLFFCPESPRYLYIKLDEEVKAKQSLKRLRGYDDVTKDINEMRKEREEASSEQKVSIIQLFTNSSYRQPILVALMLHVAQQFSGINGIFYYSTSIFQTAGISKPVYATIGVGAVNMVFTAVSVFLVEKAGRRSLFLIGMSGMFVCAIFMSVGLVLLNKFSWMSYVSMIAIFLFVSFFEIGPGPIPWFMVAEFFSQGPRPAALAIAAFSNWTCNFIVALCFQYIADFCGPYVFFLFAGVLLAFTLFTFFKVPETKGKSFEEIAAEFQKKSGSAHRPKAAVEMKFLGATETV

Consider `OC[C@H]1OC(O)[C@H](O)[C@@H](O)[C@@H]1O` (stereo partly specified), for which the EC50 (substrate-induced FRET increase) is 710 µM.
